{
  "source": "paper PMC8546421",
  "about": "“Molecular modelling of the FOXO4-TP53 interaction to design senolytic peptides for the elimination of senescent cancer cells” (EBioMedicine, 2021)",
  "key": {"[1]": {"tested_on": "Braf/Pten sporadic melanomas", "test": "TUNEL staining of melanomas in transgenic mice", "assay_type": "in vivo, mouse", "conditions": "intratumoural injection daily over two days; single agents vs saline", "quoted_text": "These mice were maintained on a C57Bl6 background and all experimental mice contained Tyr::CreER with either Braf^CA/+, Pten^fx/+; Braf^CA/CA, Pten^fx/+, or Braf^CA/+, Pten^fx/fx. […] Hypopigmented melanomas sporadically formed over the next 3-5 months, typically on the back of the mouse. These melanomas were then directly injected with 100 µL of either 20 mg/mL ES2+10%DMSO, saline+10%DMSO, saline+10%Dabrafenib, or 20 mg/mL ES2+10%Dabrafenib. The researchers were not blinded to the experiment, but each mouse contained an internal control and all imaging was done with the same exposure times based upon control tissue.\nFixed frozen sections of melanomas were stained with the Click-IT Plus TUNEL assay (ThermoFisher C10618) according to the manufacturer's protocol. Stained sections were imaged with a Zeiss A2 upright microscope at either 20x or 10x. At least one of each treatment group were stained and imaged at the same time. All sections from each staining group were set to the same exposure time for TUNEL and DAPI. Any normalization of background levels was performed in Adobe Photoshop and set to the same scale for the entire image and for all other images."}, "FOXO4-TP53 foci": {"tested_on": "FOXO4-TP53 foci", "test": "Proximity Ligation Assay", "assay_type": "cell-based, human", "conditions": "8 µM ES2, 1 hour", "description": "Senescent and dividing A375 cells were plated in 96-well plates (Cellvis P96-1.5P) at concentration of 20,000 cells per well. The following day, the cells were treated with 8 µM ES2 for 0, 1, and 4 hours. The plate was then fixed with 4% paraformaldehyde for 10 minutes at room temperature. Cells were washed with PBS twice then permeabilized with 0.1% Triton™ X-100 in PBS for 15 minutes. The duolink® In Situ Red Starter Kit Mouse/Rabbit was then used according to manufacturer's protocol with exception of 1:10 dilution of PLUS and MINUS PLA probes. Primary antibodies used were FOXO4 (Cell Signaling Technology Cat# 9472, RRID:AB_10831833, diluted 1:1000), TP53BP1 (BD Biosciences Cat# 612523, RRID:AB_399824, diluted 1:2000), and TP53 (Santa Cruz Cat# sc-126, RRID:AB_628082, diluted 1:500). Z-stacks with 0.34 um steps were captured on a Zeiss Axio Observer Z.1 inverted microscope using a Plan-Apochromat 40 × 0.95 NA lens. The system is setup for widefield fluorescence imaging using a Colibri 7 LED source and a Hamamatsu Orca-flash 4.0 LT black and white camera. The widefield z-stacks were flattened into maximum intensity projections as a pre-processing step before the analysis. Fluorescent foci were counted using the Zeiss Zen software Analysis feature. Briefly, the DAPI staining was used to define the nuclear regions. […] The total number of foci per nucleus was recorded."}, "A375 cells": {"tested_on": "A375 cells", "test": "Annexin V live cell stain, kinetics of apoptosis", "assay_type": "cell-based, human", "conditions": "8 µM ES2, A375 cells, linear regression comparison p<0.001"}, "[2]": {"test": "Systemic delivery to aged mice, blood counts, weight, plasma urea", "assay_type": "in vivo, mouse"}, "DLD1 and SW480 cells": {"tested_on": "DLD1 and SW480 cells", "test": "ES2 viability (MTS) in TP53 mutant colorectal cancer cell lines", "assay_type": "cell-based, human", "conditions": "DLD1 (S241F heterozygous), SW480 (R273H, P309S)", "description": "(§1) Cell lines were treated with chemotherapy, doxorubicin (Sigma, Cat. No. 2252) to induce senescence (200 nM for HCT116, 100 nM for B16-F10 and MCF7, 50 nM for SW480 and DLD-1, 40 nM for A375-Luc/iRFP and MCF10a). MCF7 cells were treated with CDK4/6 inhibitor, palbociclib (Selleck Chemicals: S1116) to induce senescence (5 µM). A375 cells were treated with Braf inhibitor, Dabrafenib (Selleck Chemicals: S2807), to induce senescence (10 µM). Peptide efficacy experiments were performed by seeding 10,000 – 20,000 cells in a 96-well plate. The cells were given doxorubicin twice to make the cells senescent. After removal of doxorubicin, the plate was treated with varying concentrations of peptide. The peptide was replenished daily for two days. Cellular proliferation was quantified using the Promega CellTiter 96™ AQueous One Solution Cell Proliferation Assay (MTS) after 2 hours according to the manufacturer's protocol (Promega, G3581). To control for the charge of ES2, ProteoJuice (Millipore Sigma, 71281) was used to deliver ES2 using the manufacturers protocol, except 50 µL of 2 mM ES2 was mixed with 25 µL of ProteoJuice. Varying concentrations of the mixture were administered to A375 cells along with a control of only ProteoJuice."}, "[3]": {"tested_on": "PMAIP1 (NOXA) and BBC3 (PUMA)", "test": "ddPCR of TP53 target genes", "assay_type": "cell-based, human", "description": "Primers and probes were designed specifically for ddPCR for human BBC3 (Bio-Rad Cat# 10031255, Assay ID dHsaCPE5034069) and PMAIP1(Bio-Rad Cat# 10031252, Assay ID dHsa5037552) genes. RNA was extracted using the Qiagen RNeasy Kit (Cat# 74004). 5 ng of RNA was used for 22 µl PCR reaction mixtures using the One-Step RT-ddPCR Advanced Kit for Probes (Bio-Rad Cat# 1864022) following the manufacturer's protocol. ddPCR droplets were generated using the Bio-Rad Automated Droplet Generator. Plate containing ddPCR droplets was sealed and RT-PCR was performed using the C-1000 Thermal Cycler (Bio-Rad). ddPCR was performed in the QX200 Droplet Digital PCR System (Bio-Rad). Analysis of the ddPCR data was performed using QX200 analysis software."}, "dividing A375 cells": {"tested_on": "dividing A375 cells", "test": "Peptide efficacy in culture (MTS), dividing cells", "assay_type": "cell-based, human", "conditions": "peptide replenished daily for two days, MTS, best fit polynomial, read-out: IC50^div, concentration to kill 50% of dividing cells", "description": "as §1"}, "[4]": {"conditions": "aged mice (82 weeks), 3 mg ES2 via tail vein weekly for three weeks, n=5"}},
  "note": "pIC50: −log10 of the molar value. Where no end group is shown, it is not given here.",
  "data": [
    {"sequence": "PRKGGRRRRAWGRRRRRRRRRRRRRRAPRKRLTLA [ES2]", "values": [
      {"measurement": "effect on apoptosis (TUNEL), in words", "setting": "[1]", "result": "no difference"},
      {"measurement": "effect on FOXO4-TP53 foci in dividing cells", "setting": "FOXO4-TP53 foci; dividing A375 cells", "result": "no effect on FOXO4-TP53 foci in dividing cells"},
      {"measurement": "reduction of FOXO4-TP53 foci in senescent cells", "setting": "FOXO4-TP53 foci; senescent A375 cells", "result": 2, "unit": "fold"},
      {"measurement": "rate of apoptosis, senescent compared to dividing cells", "setting": "A375 cells", "result": "four-fold"},
      {"measurement": "change in weight of the mice", "setting": "[2]; [4]", "result": "no significant change"},
      {"measurement": "changes in numbers of white blood cells, platelets, or red blood cells", "setting": "[2]; [4]", "result": "non-significant changes"},
      {"measurement": "toxicity after multiple doses", "setting": "[2]; aged mice, 3 weekly i.v. doses", "result": "minimal toxicity"},
      {"measurement": "plasma urea levels", "setting": "[2]; aged mice, endpoint, n=5", "result": "while not significant, were reduced"},
      {"measurement": "cell death in senescent TP53 mutant cells", "setting": "DLD1 and SW480 cells", "result": "effective at inducing cell death in senescent cells"},
      {"measurement": "NOXA and PUMA levels in senescent cells", "setting": "[3]; 30 minutes after ES2 treatment, n=6, p<0.001", "result": "significant increase in levels"},
      {"measurement": "NOXA and PUMA levels in dividing cells", "setting": "[3]; dividing cells", "result": "no response"},
      {"measurement": "pIC50", "setting": "dividing A375 cells", "result": "~4.77"}
    ]}
  ]
}
